Measured values: ChEMBL document CHEMBL4007427, “Inhibition of the Aldehyde Dehydrogenase 1/2 Family by Psoralen and Coumarin Derivatives” (J Med Chem, 2017)
pIC50, pKi: −log10 of the molar value.

Key:
[1] = target: T1, Aldehyde dehydrogenase, dimeric NADP-preferring (Homo sapiens) (UniProt P30838); assay: Inhibition of full length recombinant human ALDH3A1 expressed in Escherichia coli BL21(DE3) assessed as remaining dehydrogenase activity by measuring NAD(P)H level at 10 uM preincubated for 2 mins followed by addition of propionaldehyde as substrate in presence of NAD+ by spectrophotometric method
T1 sequence (whole entry): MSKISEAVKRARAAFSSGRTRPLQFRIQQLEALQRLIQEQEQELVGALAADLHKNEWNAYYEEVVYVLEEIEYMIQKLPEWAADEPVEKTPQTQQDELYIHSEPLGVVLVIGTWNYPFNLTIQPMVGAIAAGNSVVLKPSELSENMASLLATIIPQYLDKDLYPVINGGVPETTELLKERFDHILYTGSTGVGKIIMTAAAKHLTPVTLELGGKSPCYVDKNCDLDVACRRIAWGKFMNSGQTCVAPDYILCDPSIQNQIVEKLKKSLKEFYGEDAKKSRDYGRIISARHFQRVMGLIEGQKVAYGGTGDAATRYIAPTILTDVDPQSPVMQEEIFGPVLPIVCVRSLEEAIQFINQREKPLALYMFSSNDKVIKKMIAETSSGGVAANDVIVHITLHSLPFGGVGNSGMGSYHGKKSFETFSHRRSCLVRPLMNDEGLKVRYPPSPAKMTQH

[2] = Lipophilicity, log P of the compound; assay type: physicochemical; details: octanol/water
[3] = target: T2, Aldehyde dehydrogenase, mitochondrial (Homo sapiens, UniProt P05091)
T2 sequence (P05091 whole entry): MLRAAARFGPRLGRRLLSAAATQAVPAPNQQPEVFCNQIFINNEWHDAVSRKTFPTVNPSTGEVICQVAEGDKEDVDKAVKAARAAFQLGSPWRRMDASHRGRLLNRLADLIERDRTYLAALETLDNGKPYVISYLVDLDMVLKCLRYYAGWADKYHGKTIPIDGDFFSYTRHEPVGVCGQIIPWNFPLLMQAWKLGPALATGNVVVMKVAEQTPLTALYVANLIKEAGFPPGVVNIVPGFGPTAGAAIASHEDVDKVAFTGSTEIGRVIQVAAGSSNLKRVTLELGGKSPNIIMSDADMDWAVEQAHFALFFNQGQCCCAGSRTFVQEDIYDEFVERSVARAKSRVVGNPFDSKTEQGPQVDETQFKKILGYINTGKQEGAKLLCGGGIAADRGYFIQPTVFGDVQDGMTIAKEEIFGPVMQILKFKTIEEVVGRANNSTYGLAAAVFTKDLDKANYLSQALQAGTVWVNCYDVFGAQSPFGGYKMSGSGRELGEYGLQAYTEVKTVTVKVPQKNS
Description: Competitive inhibition of full length recombinant human ALDH2 expressed in Escherichia coli assessed as reduction in dehydrogenase activity using propionaldehyde as substrate in presence of varying levels NAD+ by Lineweaver-Burk plot analysis

[4] = target: T3, Aldehyde dehydrogenase 1A1 (Homo sapiens, UniProt P00352)
T3 sequence (P00352 whole entry): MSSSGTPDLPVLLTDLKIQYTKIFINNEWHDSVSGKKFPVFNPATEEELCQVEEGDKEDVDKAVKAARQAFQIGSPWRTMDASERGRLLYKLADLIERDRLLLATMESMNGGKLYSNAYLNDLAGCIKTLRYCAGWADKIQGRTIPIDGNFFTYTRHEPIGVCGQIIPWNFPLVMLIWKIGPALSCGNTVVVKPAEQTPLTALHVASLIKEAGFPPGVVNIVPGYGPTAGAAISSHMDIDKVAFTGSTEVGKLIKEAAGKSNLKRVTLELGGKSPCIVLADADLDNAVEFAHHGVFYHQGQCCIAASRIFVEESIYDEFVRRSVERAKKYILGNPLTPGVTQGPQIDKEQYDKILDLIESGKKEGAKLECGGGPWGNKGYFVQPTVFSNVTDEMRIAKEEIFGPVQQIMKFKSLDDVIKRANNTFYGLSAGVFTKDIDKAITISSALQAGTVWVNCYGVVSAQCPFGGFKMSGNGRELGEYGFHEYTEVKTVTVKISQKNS
Description: (§1) Inhibition of full length recombinant human ALDH1A1 expressed in Escherichia coli BL21(DE3) assessed as reduction in dehydrogenase activity by measuring NAD(P)H level preincubated for 2 mins followed by addition of propionaldehyde as substrate in presence of NAD+ by spectrophotometric method

[5] = target: T4, Cytosolic 10-formyltetrahydrofolate dehydrogenase (Rattus norvegicus, UniProt P28037); assay: Inhibition of rat ALDH1L1 assessed as reduction in dehydrogenase activity by measuring NAD(P)H level preincubated for 2 mins followed by addition of propionaldehyde as substrate in presence of NAD+ by spectrophotometric method
T4 sequence (P28037 whole entry): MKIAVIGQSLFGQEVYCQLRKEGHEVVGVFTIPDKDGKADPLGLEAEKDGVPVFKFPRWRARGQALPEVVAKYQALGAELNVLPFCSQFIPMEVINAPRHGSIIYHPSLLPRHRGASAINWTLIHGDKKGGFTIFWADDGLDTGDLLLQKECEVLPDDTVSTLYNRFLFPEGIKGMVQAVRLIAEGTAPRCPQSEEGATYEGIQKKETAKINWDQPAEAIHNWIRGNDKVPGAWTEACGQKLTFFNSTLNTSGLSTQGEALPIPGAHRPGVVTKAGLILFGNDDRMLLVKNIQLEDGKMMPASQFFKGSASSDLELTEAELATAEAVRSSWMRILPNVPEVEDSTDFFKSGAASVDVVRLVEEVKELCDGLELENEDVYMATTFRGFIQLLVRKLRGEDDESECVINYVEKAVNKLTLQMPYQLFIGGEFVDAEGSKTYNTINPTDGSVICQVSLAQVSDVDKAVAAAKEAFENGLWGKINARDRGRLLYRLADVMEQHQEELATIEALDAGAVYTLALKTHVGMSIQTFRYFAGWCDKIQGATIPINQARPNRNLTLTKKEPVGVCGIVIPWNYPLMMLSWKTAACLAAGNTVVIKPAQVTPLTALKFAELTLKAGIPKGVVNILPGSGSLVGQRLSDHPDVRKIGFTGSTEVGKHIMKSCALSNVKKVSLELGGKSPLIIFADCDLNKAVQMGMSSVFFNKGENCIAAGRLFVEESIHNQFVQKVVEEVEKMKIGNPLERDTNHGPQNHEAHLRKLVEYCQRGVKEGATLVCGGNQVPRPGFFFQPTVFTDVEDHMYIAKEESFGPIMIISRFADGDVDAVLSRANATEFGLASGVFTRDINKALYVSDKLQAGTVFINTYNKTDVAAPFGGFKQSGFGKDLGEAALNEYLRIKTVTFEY

[6] = target: T3, Aldehyde dehydrogenase 1A1; remark: listed apart in the source
Description: as §1

C/C(=N\O)c1cc2cc(Br)ccc2oc1=O
Activity [1]: 91.7%
logP [2]: 2.1
pKi [3]: 5.62
IC50 [4]: Not Active

CCCc1cc(=O)oc2cc3oc(C)c(C)c3cc12
Activity [1]: 80.4%
logP [2]: 4.47
IC50 [4]: Not Active

CCCc1c(C)c2cc3c(C)c(C)oc3cc2oc1=O
IC50 [5]: Not Active
Activity [1]: 86.3%
logP [2]: 4.92
pIC50 [6]: 6.66
pKi [3]: 7.72

CCCc1c(C)c2cc3c(C)coc3cc2oc1=O
IC50 [5]: Not Active
Activity [1]: 96.1%
logP [2]: 4.47
pIC50 [6]: 6.47

Cc1oc2cc3oc(=O)c(CCC(=O)N4CCCCC4)c(C)c3cc2c1C
Activity [1]: 105%
logP [2]: 4.06
pIC50 [6]: 6.89
pKi [3]: 5.96

COC(=O)C(C)Oc1ccc2c(C)cc(=O)oc2c1 (stereo unspecified)
IC50 [5]: Not Active
logP [2]: 1.9
pKi [3]: 6.51
IC50 [4]: Not Active

Cc1oc2cc3oc(=O)c4c(c3cc2c1C)CCC4
Activity [1]: 87.1%
logP [2]: 4.26
pIC50 [6]: 6.77

Cc1oc2cc3oc(=O)c(C)c(C)c3cc2c1C
IC50 [5]: Not Active
Activity [1]: 95.3%
logP [2]: 4.39
IC50 [4]: Not Active
